From patent US8404805B2, “Characterization of GRP94-ligand interactions and purification, screening, and therapeutic methods relating thereto” (Duke University, priority 2000, dated 2013)
Values belong to the compound of their own block, whether it stands above or below them.

Assays:
[1] = target: T1, GRP94 (Sus scrofa, UniProt Q29092); assay: Polarity-sensitive fluorescent probe binding to GRP94 (fluorescence emission); design: GRP94 was purified from porcine pancreas; from tissue; host or cells: porcine pancreas (rough microsomes); species or system porcine; conditions: for probe interaction with native versus heat shocked GRP94 (emission spectra): 0.5 μM GRP94, 5 μM probe, 30 min at 37° C.
T1 sequence (Q29092 22-804): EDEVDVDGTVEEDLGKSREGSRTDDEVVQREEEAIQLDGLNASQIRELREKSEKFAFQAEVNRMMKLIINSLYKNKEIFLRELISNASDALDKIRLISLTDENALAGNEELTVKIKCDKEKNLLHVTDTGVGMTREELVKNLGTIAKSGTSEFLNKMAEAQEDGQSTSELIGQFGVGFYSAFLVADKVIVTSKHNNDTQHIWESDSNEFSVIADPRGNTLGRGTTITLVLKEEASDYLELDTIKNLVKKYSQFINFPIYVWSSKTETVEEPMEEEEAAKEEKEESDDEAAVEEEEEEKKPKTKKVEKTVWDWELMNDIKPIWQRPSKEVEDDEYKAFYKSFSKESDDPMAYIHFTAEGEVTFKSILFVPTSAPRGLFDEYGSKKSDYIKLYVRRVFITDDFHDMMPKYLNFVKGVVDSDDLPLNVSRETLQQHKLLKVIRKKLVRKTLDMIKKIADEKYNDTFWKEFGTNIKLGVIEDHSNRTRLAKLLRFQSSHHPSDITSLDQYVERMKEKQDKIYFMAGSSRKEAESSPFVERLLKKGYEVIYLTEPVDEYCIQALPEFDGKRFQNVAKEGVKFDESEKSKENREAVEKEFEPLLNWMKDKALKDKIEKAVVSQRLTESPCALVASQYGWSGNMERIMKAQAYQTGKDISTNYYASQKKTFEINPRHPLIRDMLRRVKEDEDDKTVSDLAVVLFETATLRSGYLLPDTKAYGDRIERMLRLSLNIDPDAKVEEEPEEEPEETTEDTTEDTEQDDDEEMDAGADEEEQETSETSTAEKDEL

[2] = target: T1, GRP94; assay: [3H]-NECA competitive displacement assay; conditions: for competition with [3H]-NECA for binding to GRP94: nominal (80 μM) Mg2+; for relative affinities of binding to GRP94 in excess Mg2+: 10 mM Mg(OAc)2; for effect of excess Mg2+ on binding to GRP94: 10 mM Mg(OAc)2 versus nominal magnesium; for relative affinity of GRP94 for the nucleotide: NECA displacement; for binding to GRP94, nucleoside base specificity by [3H]-NECA displacement: competitors at 50 μM
[3] = tested on: HSP90; conditions: Prodromou et al. (1997); cited from earlier work
[4] = target: T1, GRP94; assay: Tryptophan fluorescence of GRP94 (tertiary conformational state); format: biochemical, porcine; design: GRP94 was purified from porcine pancreas; from tissue; host or cells: porcine pancreas (rough microsomes); conditions: 50 μM NECA, 50 μM geldanamycin, 2.5 mM ATP or 2.5 mM ADP, 1 hour at 37° C., excitation 295 nm
[5] = target: T1, GRP94; assay: [32P]ATP binding assay; design: GRP94 was purified from porcine pancreas; from tissue; host or cells: porcine pancreas (rough microsomes); species or system porcine; conditions: 50 μM [32P]ATP, 1 hour on ice
Description: (§1) ATP Binding Assay. Six:g of GRP94, BiP, and Hsp90 was incubated with 50:M (-[^32P] ATP (1000 ΦCi/Φmol) (Amersham Pharmacia Biotech of Piscataway, N.J.) in buffer B on ice for 1 hour. Nitrocellulose filters (BA85) (Schleicher & Schuell of Keene, N.H.) were individually wet in buffer B before use, and bound versus free [^32P]-ATP was separated by vacuum filtration. Filters were washed with 3×2 mL of ice cold buffer B, placed in 5 mL of scintillation fluid, vortexed, and counted.

[6] = tested on: Hsp90; assay: [32P]ATP binding assay; design: species or system rat; conditions: 50 μM [32P]ATP, 1 hour on ice
Description: as §1

[7] = tested on: BiP; assay: [32P]ATP binding assay; design: species or system porcine; conditions: 50 μM [32P]ATP, 1 hour on ice
Description: as §1

[8] = target: casein kinase II (Homo sapiens, UniProt P68400); assay: Casein kinase assay; format: biochemical; conditions: 180 μM NECA or radicicol in 3.6% DMSO, 5 μg/ml heparin, 5 mM GTP
casein kinase II, sequence (P68400 whole entry): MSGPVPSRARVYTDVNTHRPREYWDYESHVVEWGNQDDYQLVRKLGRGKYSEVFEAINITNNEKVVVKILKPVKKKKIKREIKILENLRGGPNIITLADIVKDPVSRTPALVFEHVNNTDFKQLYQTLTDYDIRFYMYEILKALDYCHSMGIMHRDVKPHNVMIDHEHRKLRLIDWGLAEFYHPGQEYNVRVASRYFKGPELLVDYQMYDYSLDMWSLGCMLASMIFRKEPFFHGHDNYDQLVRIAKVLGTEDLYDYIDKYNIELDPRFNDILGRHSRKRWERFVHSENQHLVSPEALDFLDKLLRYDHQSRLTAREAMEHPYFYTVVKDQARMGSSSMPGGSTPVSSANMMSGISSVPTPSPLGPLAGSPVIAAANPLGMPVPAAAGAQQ
casein kinase II, sequence (P67870 whole entry partner): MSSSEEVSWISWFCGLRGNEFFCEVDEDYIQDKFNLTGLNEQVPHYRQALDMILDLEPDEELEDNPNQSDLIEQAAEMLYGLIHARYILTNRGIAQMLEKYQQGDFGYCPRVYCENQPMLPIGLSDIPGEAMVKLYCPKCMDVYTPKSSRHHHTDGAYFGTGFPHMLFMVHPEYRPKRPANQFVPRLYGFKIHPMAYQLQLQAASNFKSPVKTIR
Description: (§2) Phosphorylation Assays. […] For the casein kinase assay, 1 unit of casein kinase II was incubated as described above, with the addition of 4:M casein. […] The 25:I reaction mixtures were incubated at 37° C. for 1 hour and quenched by addition of 10% trichloroacetic acid. Samples were analyzed by 10% SDS-PAGE gels and the phosphorylated species were quantitated using a Fuji MACBAS1000™ phosphorimaging system (Fuji Medical Systems of Stamford, Conn.).

[9] = target: T1, GRP94; assay: GRP94 autophosphorylation assay; format: biochemical, porcine; design: GRP94 was purified from porcine pancreas; from tissue; host or cells: porcine pancreas (rough microsomes); conditions: 180 μM NECA or radicicol in 3.6% DMSO, 5 μg/ml heparin, 5 mM GTP
Description: as §2

[10] = target: T1, GRP94; assay: ATPase assay (HPLC); format: biochemical, porcine; design: GRP94 was purified from porcine pancreas; from tissue; host or cells: porcine pancreas (rough microsomes)
Description: Samples were then spun through a CENTRICON®-30 (Amicon of Beverly, Mass.) at 10,000 rpm, 4° C. to separate protein from nucleotide. A final concentration of 50 mM (NH4)2HPO4, pH 7.0, and 4:M AMP, pH 7.0, was added to dilutions of the above samples and centrifuged at 15,200 rpm for 5 minutes at 4° C. 100:L of supernatant was then fractionated on a […] column (Alltech of Deerfield, Ill.), using a Series 1050 Hewlett Packard HPLC system. Elution of nucleotides was performed by step gradient elution using a mobile phase of 150 mM (NH4)2HPO4, pH 5.2, at 1.2 ml/min for the first ten minutes, followed by 300 mM (NH4)2HPO4, pH 5.2, at a flow rate of 2 ml/min for the remainder of the elution. In this protocol, ADP and ATP were well resolved, with ADP eluting at 7 minutes and ATP at 12 minutes. Peak height values were used in calculations of percent hydrolysis and ADP formation. Spontaneous hydrolysis was determined for each ATP concentration in paired incubations lacking GRP94. The AMP was used as an internal reference standard to control for equivalent sample loading.

[11] = target: T1, GRP94; assay: Isothermal titration calorimetry; format: binding, porcine; design: GRP94 was purified from porcine pancreas; from tissue; host or cells: porcine pancreas (rough microsomes); conditions: 5 μM GRP94, 152 μM NECA stock, 25° C.
[12] = tested on: BiP; assay: [3H]-NECA binding assay (vacuum filtration); conditions: 20 nM [3H]-NECA, 60 min on ice
[13] = target: T1, GRP94; assay: [3H]-NECA binding assay (vacuum filtration)
[14] = target: HSP90 (Saccharomyces cerevisiae, UniProt P02829); conditions: Roe et al. (1999); cited from earlier work
HSP90 (Saccharomyces cerevisiae, UniProt P02829), sequence (P02829 whole entry): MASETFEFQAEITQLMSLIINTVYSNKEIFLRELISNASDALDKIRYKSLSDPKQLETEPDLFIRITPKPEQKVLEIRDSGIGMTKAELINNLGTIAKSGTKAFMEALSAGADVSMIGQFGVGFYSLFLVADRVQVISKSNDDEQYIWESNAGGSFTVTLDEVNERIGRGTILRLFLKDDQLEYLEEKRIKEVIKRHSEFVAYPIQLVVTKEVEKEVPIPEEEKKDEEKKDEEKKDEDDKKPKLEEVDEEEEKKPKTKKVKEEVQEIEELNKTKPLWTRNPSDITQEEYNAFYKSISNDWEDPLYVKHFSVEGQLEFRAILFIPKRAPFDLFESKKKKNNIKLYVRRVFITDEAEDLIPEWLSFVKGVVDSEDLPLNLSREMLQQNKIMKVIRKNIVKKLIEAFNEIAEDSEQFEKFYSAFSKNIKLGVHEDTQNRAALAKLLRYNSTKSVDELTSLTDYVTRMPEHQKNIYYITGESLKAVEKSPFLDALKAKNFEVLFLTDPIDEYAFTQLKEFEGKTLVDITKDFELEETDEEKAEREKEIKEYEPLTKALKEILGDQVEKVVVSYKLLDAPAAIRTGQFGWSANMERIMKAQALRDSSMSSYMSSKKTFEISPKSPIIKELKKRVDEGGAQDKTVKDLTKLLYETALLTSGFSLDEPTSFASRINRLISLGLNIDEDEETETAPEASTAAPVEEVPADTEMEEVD

agonist activity for GRP94 activation [1]: lacks agonist activity
Compound: O=S(=O)(O)c1cccc2cccc(Nc3ccccc3)c12 [8-ANS, 1,8-anilinonaphthalenesulfonate]
probe interaction with native versus heat shocked GRP94 (emission spectra) [1]: displays weak interactions with native GRP94, yet binds avidly following heat shock

competition with [3H]-NECA for binding to GRP94 ([2]; 20 nM [3H]-NECA): effectively competed
relative affinities of binding to GRP94 in excess Mg2+ [2]: nearly identical relative affinities
effect of excess Mg2+ on binding to GRP94 [2]: markedly stimulated
relative affinity of GRP94 for the nucleotide [2]: quite low
change of GRP94 tryptophan fluorescence [4]: decreased
Compound: Nc1ncnc2c1ncn2[C@@H]1O[C@H](COP(=O)(O)OP(=O)(O)O)[C@@H](O)[C@H]1O [ADP]
affinity of N-terminal domain of Hsp90 for ADP relative to ATP [3]: four

competition with [3H]-NECA for binding to GRP94 ([2]; 20 nM [3H]-NECA): effectively competed
effect of excess Mg2+ on binding to GRP94 [2]: markedly stimulated
relative affinity of GRP94 for the nucleotide [2]: quite low
Compound: Nc1ncnc2c1ncn2[C@@H]1O[C@H](COP(=O)(O)O)[C@@H](O)[C@H]1O [AMP]

ATP binding [5]: no ATP binding was observed
molar excess required for 50% inhibition of [3H]-NECA binding ([2]; 20 nM [3H]-NECA): ~1000 -fold molar excess
competition with [3H]-NECA for binding to GRP94 ([2]; 20 nM [3H]-NECA): effectively competed
relative affinities of binding to GRP94 in excess Mg2+ [2]: nearly identical relative affinities
effect of excess Mg2+ on binding to GRP94 [2]: markedly stimulated
relative affinity of GRP94 for the nucleotide [2]: quite low
binding to GRP94, nucleoside base specificity by [3H]-NECA displacement ([2]; 20 nM [3H]-NECA): could bind
efficacy of competing NECA binding, ATP relative to ADP ([2]; nominal Mg2+): eight
change of GRP94 tryptophan fluorescence [4]: decreased
ATP binding [6]: no ATP binding was observed
Compound: Nc1ncnc2c1ncn2[C@@H]1O[C@H](COP(=O)(O)OP(=O)(O)OP(=O)(O)O)[C@@H](O)[C@H]1O [ATP]
ATP binding [7]: displayed the expected ATP binding activity

binding to GRP94, nucleoside base specificity by [3H]-NECA displacement ([2]; 20 nM [3H]-NECA): little to no binding
Compound: Nc1ccn([C@@H]2O[C@H](COP(=O)(O)OP(=O)(O)OP(=O)(O)O)[C@@H](O)[C@H]2O)c(=O)n1 [CTP]

binding to GRP94, nucleoside base specificity by [3H]-NECA displacement ([2]; 20 nM [3H]-NECA): little to no binding
effect on casein kinase II activity [8]: markedly attenuated
effect on GRP94 autophosphorylation (GRP94-derived kinase) activity [9]: markedly attenuated
Compound: Nc1nc2c(ncn2[C@@H]2O[C@H](COP(=O)(O)OP(=O)(O)OP(=O)(O)O)[C@@H](O)[C@H]2O)c(=O)[nH]1 [GTP]

Compound: CCNC(=O)[C@H]1O[C@@H](n2cnc3c(N)ncnc32)[C@H](O)[C@@H]1O [NECA, N-ethylcarboxamidoadenosine]
effect on GRP94 ATPase activity [10]: sensitive to inhibition by NECA
effect of excess Mg2+ on binding to GRP94 [2]: without effect
binding stoichiometry by isothermal titration calorimetry [11]: 1.1 mol NECA/mol GRP94 dimer
change of GRP94 tryptophan fluorescence [4]: increased the tryptophan fluorescence
effect on casein kinase II activity [8]: neither NECA nor radicicol, both of which bind to the N-terminal nucleotide binding domain of GRP94, significantly inhibit GRP94 derived or casein kinase II activity below the solvent background
[3H]-NECA binding activity [12]: not observed
effect on GRP94 autophosphorylation (GRP94-derived kinase) activity [9]: neither NECA nor radicicol, both of which bind to the N-terminal nucleotide binding domain of GRP94, significantly inhibit GRP94 derived or casein kinase II activity below the solvent background
slope of Hill plot [13]: 1.2
[3H]-NECA binding activity ([13]; 20 nM [3H]-NECA, 60 min on ice): readily detectable
binding stoichiometry ([13]; radioligand, vacuum filtration): 0.5 mol [^3H]-NECA/mol GRP94 monomer

Compound: CCC(=O)c1ccc2cc(N(C)C)ccc2c1 [Prodan, 6-propionyl-2-(dimethylamino)naphthalene]
probe interaction with native versus heat shocked GRP94 (emission spectra) [1]: does not interact with the hydrophobic binding pocket(s) displayed by heat shocked GRP94

binding to GRP94, nucleoside base specificity by [3H]-NECA displacement ([2]; 20 nM [3H]-NECA): little to no binding
Compound: O=c1ccn([C@@H]2O[C@H](COP(=O)(O)OP(=O)(O)OP(=O)(O)O)[C@@H](O)[C@H]2O)c(=O)[nH]1 [UTP]

relative displacement activity of [3H]-NECA ([2]; 20 nM [3H]-NECA): approximating that observed for ADP
effect of excess Mg2+ on binding to GRP94 [2]: without effect
Compound: Nc1ncnc2c1ncn2[C@@H]1O[C@H](CO)[C@@H](O)[C@H]1O [adenosine]

binding to GRP94, nucleoside base specificity by [3H]-NECA displacement ([2]; 20 nM [3H]-NECA): could bind
Compound: Nc1ncnc2c1ncn2[C@H]1C[C@H](O)[C@@H](COP(=O)(O)OP(=O)(O)OP(=O)(O)O)O1 [deoxyATP]

Compound: C[C@@H]1C[C@H]2O[C@@H]2/C=C\C=C\C(=O)Cc2c(Cl)c(O)cc(O)c2C(=O)O1 [radicicol]
expected binding stoichiometry [14]: 2 mol radicicol/mol Hsp90 dimer
effect on casein kinase II activity [8]: neither NECA nor radicicol, both of which bind to the N-terminal nucleotide binding domain of GRP94, significantly inhibit GRP94 derived or casein kinase II activity below the solvent background

effect on casein kinase II activity [8]: markedly attenuated
effect on GRP94 autophosphorylation (GRP94-derived kinase) activity [9]: markedly attenuated
Compound: heparin
